Drawing on publication PMC6470885 (Molecules, 2019), this text covers IC50 for one compound.

Residues, ends and D or L forms follow the SMILES beside them.

Common to all, as to assay type: cell-based
The subject of one assay is HIV-1 NL4-3 D36G (WT). The conditions noted are these: p24 ELISA, mean ± SD of three independent experiments. (An ELISA detects its analyte on a solid surface through an enzyme-linked reagent.)
A further assay has as its system HIV-1 NL4-3 (D36G) V38A. The conditions noted are these: T20-resistant (D36G) V38A; p24 ELISA; mean ± SD of three independent experiments.
Assay [1] relates to HIV-1 NL4-3 (D36G) V38A, N42D. The conditions noted are these: T20-resistant (D36G) V38A, p24 ELISA, mean ± SD of three independent experiments.
Procedure: For each well of a 96-well plate, 50 μL of a peptide were mixed with 50 μL of 100 × TCID50 (50% tissue culture infective doses) of HIV-1 live virus and incubated at 37 °C for 30 min. Afterwards, 2 × 10^4 MT-2 (for X4 virus) or CEMx174 5.25 M7 cells (for R5 virus) were added. After overnight culture, the supernatant was replaced with fresh RPMI-1640 medium containing 10% fetal bovine serum (FBS). After further culture at 37 °C for three days, 50 μL of the culture medium were collected and mixed with equal volume of 5% (v/v) Triton X-100. The p24 antigen, which represents HIV-1 quantity, was detected by ELISA. Briefly, the collected mixtures were added to a plate coated with anti-HIV Immune Globulin (HIVIG) from the NIH AIDS Reagent Program. Anti-p24 mAb 183, rabbit anti-mouse IgG-HRP (Dako, Glostrup, Denmark) and substrate 3,3,5,5-TMB (Sigma-Aldrich, New York, NY) were added and washed away sequentially. The absorbance at 450 nm (A450) was determined by a Multi-Detection Microplate Reader (Ultra 384, Tecan, Tokyo, Japan). IC50s were calculated using Calcusyn software (Biosoft, Ferguson, MO), and the lines of best fit were drawn using GraphPad Prism 8 software (La Jolla, CA).
Assay [2] has as its system HIV-1 NL4-3 (D36G) V38E, N42S. The conditions noted are these: T20-resistant (D36G) V38E, p24 ELISA, mean ± SD of three independent experiments.
Procedure: (§1) Inhibitory activities of peptides on infection by HIV-1 X4 strain IIIB, R5 strain Bal, and T20-, T2635-, HP23-resistant strains were determined as previously described [42]. For each well of a 96-well plate, 50 μL of a peptide were mixed with 50 μL of 100 × TCID50 (50% tissue culture infective doses) of HIV-1 live virus and incubated at 37 °C for 30 min. Afterwards, 2 × 10^4 MT-2 (for X4 virus) or CEMx174 5.25 M7 cells (for R5 virus) were added. After overnight culture, the supernatant was replaced with fresh RPMI-1640 medium containing 10% fetal bovine serum (FBS). After further culture at 37 °C for three days, 50 μL of the culture medium were collected and mixed with equal volume of 5% (v/v) Triton X-100. The p24 antigen, which represents HIV-1 quantity, was detected by ELISA. Briefly, the collected mixtures were added to a plate coated with anti-HIV Immune Globulin (HIVIG) from the NIH AIDS Reagent Program. Anti-p24 mAb 183, rabbit anti-mouse IgG-HRP (Dako, Glostrup, Denmark) and substrate 3,3,5,5-TMB (Sigma-Aldrich, New York, NY) were added and washed away sequentially. The absorbance at 450 nm (A450) was determined by a Multi-Detection Microplate Reader (Ultra 384, Tecan, Tokyo, Japan). IC50s were calculated using Calcusyn software (Biosoft, Ferguson, MO), and the lines of best fit were drawn using GraphPad Prism 8 software (La Jolla, CA).
Assay [3] has as its system HIV-1 NL4-3 (D36G) V38A, N42T. Particulars: T20-resistant (D36G) V38A, p24 ELISA, mean ± SD of three independent experiments.
Procedure: as §1
For assay [4], the system named is HIV-1 NL4-3 (D36G) N42T, N43K. The conditions noted are these: T20-resistant (D36G) N42T, p24 ELISA, mean ± SD of three independent experiments.
Procedure: as §1
For a further assay, the system named is HIV-1 LAI (WT). Particulars: p24 ELISA, mean ± SD of three independent experiments.
For another assay, the system named is HIV-1 LAI A6V. Particulars: T2635-resistant A6V; p24 ELISA; mean ± SD of three independent experiments.
A further assay relates to HIV-1 LAI Q66R. Particulars: T2635-resistant Q66R; p24 ELISA; mean ± SD of three independent experiments.
For another assay, the system named is HIV-1 LAI K90E. Particulars: T2635-resistant K90E; p24 ELISA; mean ± SD of three independent experiments.
A further assay relates to HIV-1 LAI K154Q. The conditions noted are these: T2635-resistant K154Q; p24 ELISA; mean ± SD of three independent experiments.
The test system of the next assay is HIV-1 LAI Q79E/N126K. Particulars: T2635-resistant Q79E/N126K; p24 ELISA; mean ± SD of three independent experiments.
For another assay, the system named is HIV-1 LAI K90E/N126K. Particulars: T2635-resistant K90E/N126K; p24 ELISA; mean ± SD of three independent experiments.
A further assay relates to HIV-1 NL4-3 (WT). Particulars: p24 ELISA, mean ± SD of three independent experiments.
A further assay concerns HIV-1 NL4-3 E49K. The conditions noted are these: HP23-resistant E49K; p24 ELISA; mean ± SD of three independent experiments.
Another assay concerns HIV-1 NL4-3 E49K/N126K. The conditions noted are these: HP23-resistant E49K/N126K; p24 ELISA; mean ± SD of three independent experiments.
Assay [5] has as its system HIV-1 NL4-3 D36G/E49K/N126K. The conditions noted are these: HP23-resistant D36G/E49K/N126K; p24 ELISA; mean ± SD of three independent experiments.
Procedure: as §1
In assay [6] the test system is HIV-1 NL4-3 L34S/D36G/E49K/E136G. Particulars: HP23-resistant L34S/D36G/E49K/E136G; p24 ELISA; mean ± SD of three independent experiments.
Procedure: as §1
The test system of assay [7] is cell-cell fusion between H9/IIIB cells and MT-2 cells. The experiment in a line: HIV-1-mediated cell-cell fusion (dye transfer assay). The conditions noted are these: Calcein AM dye transfer; peptide 37 °C 30 min, then MT-2 cells 2 h; read-out: IC50 against cell-cell fusion between H9/IIIB cells and MT-2 cells. The method, then: A dye transfer assay was performed to detect HIV-1 Env-mediated cell-cell fusion as described previously. Briefly, for each well of a 96-well plate, 2 × 10^3 H9/IIIB cells labeled with the fluorescent reagent Calcein AM (Molecular Probes, Inc., Eugene, Oregon) were incubated with a CHR-peptide at 37 °C for 30 min. Afterwards, 10^4 MT-2 cells were added and incubated at 37 °C for 2 h. The fused and unfused Calcein-labeled H9/IIIB cells were counted under an inverted fluorescence microscope (Zeiss, Oberkochen, Germany). The IC50 values were calculated by using the Calcusyn computer program (Biosoft, Ferguson, MO).

In another assay the test system is HIV-1IIIB (X4 virus). The method, then:
To determine whether a peptide binds with the target cells in order to execute its anti-HIV-1 activity, cell wash and nonwash assays were performed as previously described. Briefly, 2 × 10^4 MT-2 cells were incubated with a peptide at 4 °C for 30 min, followed by washes of the pretreated cells to remove the unbound peptide (control: without washes) before addition of HIV-1IIIB (100 × TCID50). After culture at 37 °C overnight, the supernatant was replaced by fresh RPMI-1640 medium containing 10% FBS. The inhibitory activity of the cell-bound peptide in the wash group and free peptide in the nonwash group was determined as described above.

Procedure for HIV-1 LAI A6V: as §1
Procedure for HIV-1 LAI K154Q: as §1
Procedure for HIV-1 LAI K90E/N126K: as §1
Procedure for HIV-1 LAI Q66R: as §1
Procedure for HIV-1 LAI Q79E/N126K: as §1
Procedure for HIV-1 NL4-3 (WT): as §1
Procedure for HIV-1 NL4-3 D36G (WT): as §1
Procedure for HIV-1 NL4-3 E49K/N126K: as §1

Regarding `CC[C@H](C)[C@H](NC(=O)[C@H](CCC(N)=O)NC(=O)[C@H](CCC(N)=O)NC(=O)[C@H](CC(N)=O)NC(=O)[C@H](CCC(N)=O)NC(=O)[C@H](CO)NC(=O)[C@H](CCCCN)NC(=O)[C@H](CCCCN)NC(=O)[C@H](CC(C)C)NC(=O)[C@@H](NC(=O)[C@H](CCC(=O)O)NC(=O)[C@H](CCC(=O)O)NC(=O)[C@@H](NC(=O)[C@H](CCCCN)NC(=O)[C@H](CCCCN)NC(=O)[C@@H](NC(=O)[C@H](Cc1ccc(O)cc1)NC(=O)[C@H](CCC(=O)O)NC(=O)[C@H](CCC(=O)O)NC(=O)[C@@H](NC(=O)[C@H](CCCCN)NC(=O)[C@H](CCCCN)NC(=O)[C@H](CCC(=O)O)NC(=O)[C@H](Cc1c[nH]c2ccccc12)NC(=O)[C@H](CCC(=O)O)NC(=O)[C@H](CCC(=O)O)NC(=O)[C@H](Cc1c[nH]c2ccccc12)NC(=O)[C@@H](NC(=O)[C@H](CCSC)NC(=O)[C@@H](N)CCC(=O)O)[C@@H](C)O)[C@@H](C)CC)[C@@H](C)O)[C@@H](C)CC)[C@@H](C)CC)C(=O)N[C@@H](CC(=O)O)C(=O)N[C@@H](CC(C)C)C(=O)O` [HP23-E6-IDL] (H-EMTWEEWEKKIEEYTKKIEEILKKSQNQQIDL-OH), the IC50 in the assay on HIV-1 NL4-3 D36G (WT) came out at 0.912 ± 0.029 nM; with HIV-1 NL4-3 (D36G) V38A, 0.647 ± 0.024 nM; in assay [1] it was 1.54 ± 0.253 nM; in [2], 0.748 ± 0.012 nM; in [3] it was 0.838 ± 0.031 nM; in [4], 0.941 ± 0.019 nM. For the same compound, the IC50 is 0.932 ± 0.059 nM in the assay with HIV-1 LAI (WT); 0.349 ± 0.019 nM in the assay on HIV-1 LAI A6V; 0.496 ± 0.168 nM in the assay on HIV-1 LAI Q66R; 1.42 ± 0.242 nM in the assay on HIV-1 LAI K90E; 1.25 ± 0.249 nM in the assay with HIV-1 LAI K154Q; 1.31 ± 0.059 nM with HIV-1 LAI Q79E/N126K. In addition, the IC50 in the assay with HIV-1 LAI K90E/N126K is 0.842 ± 0.066 nM; with HIV-1 NL4-3 (WT), 0.699 ± 0.025 nM; in the assay on HIV-1 NL4-3 E49K, 2.04 ± 0.126 nM; with HIV-1 NL4-3 E49K/N126K it was 2.56 ± 0.318 nM; in assay [5], 3.14 ± 0.4 nM; in [6], 4.94 ± 1.1 nM. Also, the IC50 in assay [7] is 1.14 nM; with HIV-1IIIB (X4 virus), 2.4 nM.
